Reference: patent publication US11446287B2, “Compounds and methods for EP300 or CBP modulation and indications therefor” (Opna Immuno-Oncology SA, priority 2019, dated 2022)

Each compound was assayed against T1, Recombinant human BRD4 containing dual bromodomains (BRD4-BD12 (1-477)) (Homo sapiens, UniProt O60885) (assay: BRD4 Alphascreen binding assay).
T1 construct: Recombinant human BRD4 containing dual bromodomains (BRD4-BD12 (1-477)); made in house; host or cells: E. coli BL21-CodonPlus (DE3), modified pET vector
Procedure, shortened: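 AlphaScreen proximity between Ni-chelate-bound BRD4-BD12 (1-477) and streptavidin-captured H4 K5/K8/K12/K16-acetyl peptide measured after 1 h room-temperature compound incubation and 30 min with 7.5 μg/ml beads. Buffer: 50 mM HEPES pH 7.5, 50 mM NaCl, 0.01% BSA, 0.01% Triton X-100; data plate-normalized and four-parameter fit for IC50.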

Structure (SMILES) | IC50
CCOc1cc(OC)c(C(=O)O)cc1-c1cn(-c2ccc(F)cc2F)c2ncc(-c3c(C)noc3C)cc12 [P-0250, 5-(1-(2,4-difluorophenyl)-5-(3,5-dimethylisoxazol-4-yl)-1H-pyrrolo[2,3-b]pyridin-3-yl)-4-ethoxy-2-methoxybenzoic acid] | 8 to 1000 µM
Cc1noc(C)c1-c1cnc2c(-c3ccccc3)cn(-c3cc(C(=O)O)ccc3OC(F)(F)F)c2c1 [P-0274, 3-(6-(3,5-dimethylisoxazol-4-yl)-3-phenyl-1H-pyrrolo[3,2-b]pyridin-1-yl)-4-(trifluoromethoxy)benzoic acid] | 1 to 8 µM
Cc1noc(C)c1-c1cnc2c(-c3cccc(C(=O)O)c3Cl)c(C(F)(F)F)n([C@@H](C)c3ccccn3)c2c1 [P-0247, (S)-2-chloro-3-(6-(3,5-dimethylisoxazol-4-yl)-1-(1-(pyridin-2-yl)ethyl)-2-(trifluoromethyl)-1H-pyrrolo[3,2-b]pyridin-3-yl)benzoic acid] | 8 to 1000 µM
Cc1noc(C)c1-c1cnc2c(c1)c(-c1ccc(C#N)cc1)cn2C(c1ccccn1)C1CCCC1 (stereo not drawn) [P-0022, 4-(1-(cyclopentyl(pyridin-2-yl)methyl)-5-(3,5-dimethylisoxazol-4-yl)-1H-pyrrolo[2,3-b]pyridin-3-yl)benzonitrile] | 8 to 1000 µM
CNC(=O)c1ccc(-c2cn(C(c3ccccn3)C3CCCC3)c3ncc(-c4c(C)noc4C)cc23)cc1 (stereo not drawn) [P-0021, 4-(1-(cyclopentyl(pyridin-2-yl)methyl)-5-(3,5-dimethylisoxazol-4-yl)-1H-pyrrolo[2,3-b]pyridin-3-yl)-N-methylbenzamide] | 1 to 8 µM
Cc1nnn(C)c1-c1cnc2c(c1)c(-c1ccc(C(=O)O)cc1OC(F)(F)F)cn2CC/C=C/C1CC1 [P-0305, (E)-4-(1-(4-cyclopropylbut-3-en-1-yl)-5-(1,4-dimethyl-1H-1,2,3-triazol-5-yl)-1H-pyrrolo[2,3-b]pyridin-3-yl)-3-(trifluoromethoxy)benzoic acid] | 8 to 1000 µM
Cc1noc(C)c1-c1cnc2c(c1)c(-c1ccc(-c3nn[nH]n3)cc1)cn2C(c1ccccn1)C1CCCC1 (stereo not drawn) [P-0024, 4-(3-(4-(2H-tetrazol-5-yl)phenyl)-1-(cyclopentyl(pyridin-2-yl)methyl)-1H-pyrrolo[2,3-b]pyridin-5-yl)-3,5-dimethylisoxazole] | 8 to 1000 µM
CCOc1cc(C(=O)O)cc(OCC)c1-n1cc(-c2cn(C)nc2C)c2ncc(-c3c(C)noc3C)cc21 [P-0263, 4-(3-(1,3-dimethyl-1H-pyrazol-4-yl)-6-(3,5-dimethylisoxazol-4-yl)-1H-pyrrolo[3,2-b]pyridin-1-yl)-3,5-diethoxybenzoic acid] | 1 to 8 µM
Cc1noc(C)c1-c1cnc2c(c1)c(-c1ccc(C(=O)O)cc1OC(F)(F)F)cn2-c1ccccc1Cl [P-0307, 4-(1-(2-chlorophenyl)-5-(3,5-dimethylisoxazol-4-yl)-1H-pyrrolo[2,3-b]pyridin-3-yl)-3-(trifluoromethoxy)benzoic acid] | 1 to 8 µM
Cc1noc(C)c1-c1cnc2c(c1)c(-c1ccc(C(=O)O)cc1OC(F)(F)F)cn2-c1cnn(C(F)F)c1C [P-0289, 4-(1-(1-(difluoromethyl)-5-methyl-1H-pyrazol-4-yl)-5-(3,5-dimethylisoxazol-4-yl)-1H-pyrrolo[2,3-b]pyridin-3-yl)-3-(trifluoromethoxy)benzoic acid] | 1 to 8 µM
Cc1noc(C)c1-c1cnc2c(c1)c(-c1ccc(C(=O)O)cc1OC(F)(F)F)cn2-c1cnccc1O [P-0252, 4-(5-(3,5-dimethylisoxazol-4-yl)-1-(4-hydroxypyridin-3-yl)-1H-pyrrolo[2,3-b]pyridin-3-yl)-3-(trifluoromethoxy)benzoic acid] | 8 to 1000 µM
Cc1noc(C)c1-c1cnc2c(-c3ccc(F)cc3F)cn(-c3c(OC(C)C)cc(C(=O)O)cc3OC(C)C)c2c1 [P-0269, 4-(3-(2,4-difluorophenyl)-6-(3,5-dimethylisoxazol-4-yl)-1H-pyrrolo[3,2-b]pyridin-1-yl)-3,5-diisopropoxybenzoic acid] | 1 to 8 µM
Cc1noc(C)c1-c1cnc2c(c1)c(-c1ccc(C(=O)O)cc1OC(F)(F)F)cn2-c1ccncc1F [P-0293, 4-(5-(3,5-dimethylisoxazol-4-yl)-1-(3-fluoropyridin-4-yl)-1H-pyrrolo[2,3-b]pyridin-3-yl)-3-(trifluoromethoxy)benzoic acid] | 1 to 8 µM
Cc1nn(C(F)F)cc1-n1cc(-c2ccc(C(=O)O)cc2OC(F)(F)F)c2cc(-c3c(C)noc3C)cnc21 [P-0288, 4-(1-(1-(difluoromethyl)-3-methyl-1H-pyrazol-4-yl)-5-(3,5-dimethylisoxazol-4-yl)-1H-pyrrolo[2,3-b]pyridin-3-yl)-3-(trifluoromethoxy)benzoic acid] | 1 to 8 µM
Cc1noc(C)c1-c1cnc2c(c1)c(-c1ccc(C(=O)O)cc1OC(F)F)cn2-c1ccccc1 [P-0273, 3-(difluoromethoxy)-4-(5-(3,5-dimethylisoxazol-4-yl)-1-phenyl-1H-pyrrolo[2,3-b]pyridin-3-yl)benzoic acid] | 1 to 8 µM
Cc1noc(C)c1-c1cnc2c(c1)c(-c1cnn(CC(=O)O)c1)cn2-c1ncccc1C#CC1CC1 [P-0272, 2-(4-(1-(3-(cyclopropylethynyl)pyridin-2-yl)-5-(3,5-dimethylisoxazol-4-yl)-1H-pyrrolo[2,3-b]pyridin-3-yl)-1H-pyrazol-1-yl)acetic acid] | 8 to 1000 µM
Cc1noc(C)c1-c1cnc2c(c1)c(-c1ccc(C(=O)O)cc1OC(F)(F)F)cn2-c1ccsc1 [P-0315, 4-(5-(3,5-dimethylisoxazol-4-yl)-1-(thiophen-3-yl)-1H-pyrrolo[2,3-b]pyridin-3-yl)-3-(trifluoromethoxy)benzoic acid] | 0.0001 to 1 µM
Cc1noc(C)c1-c1cnc2c(c1)c(-c1c(Cl)cc(C(=O)O)cc1OC(C)C)cn2C(C1CC1)C1CC1 [P-0283, 3-chloro-4-(1-(dicyclopropylmethyl)-5-(3,5-dimethylisoxazol-4-yl)-1H-pyrrolo[2,3-b]pyridin-3-yl)-5-isopropoxybenzoic acid] | 1 to 8 µM
CCOc1cc(C(=O)O)cc(OCC)c1-n1cc(-c2cnn(CS(C)(=O)=O)c2)c2ncc(-c3c(C)noc3C)cc21 [P-0258, 4-(6-(3,5-dimethylisoxazol-4-yl)-3-(1-((methylsulfonyl)methyl)-1H-pyrazol-4-yl)-1H-pyrrolo[3,2-b]pyridin-1-yl)-3,5-diethoxybenzoic acid] | 1 to 8 µM
Cc1noc(C)c1-c1cnc2c(c1)c(-c1ccc(C(=O)O)cc1OC(F)(F)F)cn2C1CCN(S(C)(=O)=O)CC1 [P-0292, 4-(5-(3,5-dimethylisoxazol-4-yl)-1-(1-(methylsulfonyl)piperidin-4-yl)-1H-pyrrolo[2,3-b]pyridin-3-yl)-3-(trifluoromethoxy)benzoic acid] | 1 to 8 µM
Cc1noc(C)c1-c1cnc2c(c1)c(-c1ccc(C(=O)O)cc1OC1CCC1)cn2-c1ccccc1 [P-0276, 3-cyclobutoxy-4-(5-(3,5-dimethylisoxazol-4-yl)-1-phenyl-1H-pyrrolo[2,3-b]pyridin-3-yl)benzoic acid] | 1 to 8 µM
Cc1noc(C)c1-c1cnc2c(c1)c(-c1ccc(C(=O)O)cc1OC(F)(F)F)cn2-c1c(F)cccc1C#N [P-0254, 4-(1-(2-cyano-6-fluorophenyl)-5-(3,5-dimethylisoxazol-4-yl)-1H-pyrrolo[2,3-b]pyridin-3-yl)-3-(trifluoromethoxy)benzoic acid] | 1 to 8 µM
Cc1noc(C)c1-c1cnc2c(c1)c(-c1ccc(C(=O)O)cc1OC(F)(F)F)cn2-c1ccc(F)cc1 [P-0279, 4-(5-(3,5-dimethylisoxazol-4-yl)-1-(4-fluorophenyl)-1H-pyrrolo[2,3-b]pyridin-3-yl)-3-(trifluoromethoxy)benzoic acid] | 1 to 8 µM
Cc1noc(C)c1-c1cnc2c(c1)c(-c1cnn(CC(=O)O)c1)cn2C(C1CC1)C1CC1 [P-0280, 2-(4-(1-(dicyclopropylmethyl)-5-(3,5-dimethylisoxazol-4-yl)-1H-pyrrolo[2,3-b]pyridin-3-yl)-1H-pyrazol-1-yl)acetic acid] | 8 to 1000 µM
CCOc1cc(O)c(C(=O)O)cc1-c1cn(-c2ccc(F)cc2F)c2ncc(-c3c(C)noc3C)cc12 [P-0249, 5-(1-(2,4-difluorophenyl)-5-(3,5-dimethylisoxazol-4-yl)-1H-pyrrolo[2,3-b]pyridin-3-yl)-4-ethoxy-2-hydroxybenzoic acid] | 8 to 1000 µM
CCOc1cc(C(=O)O)c(F)c(OCC)c1-c1cn(-c2ccc(F)cc2F)c2ncc(-c3c(C)noc3C)cc12 [P-0297, 4-(1-(2,4-difluorophenyl)-5-(3,5-dimethylisoxazol-4-yl)-1H-pyrrolo[2,3-b]pyridin-3-yl)-3,5-diethoxy-2-fluorobenzoic acid] | 8 to 1000 µM
Cc1noc(C)c1-c1cnc2c(c1)c(-c1ccc(C(=O)O)cc1OC(F)(F)F)cn2[C@H]1CCOC1 [P-0285, (S)-4-(5-(3,5-dimethylisoxazol-4-yl)-1-(tetrahydrofuran-3-yl)-1H-pyrrolo[2,3-b]pyridin-3-yl)-3-(trifluoromethoxy)benzoic acid] | 8 to 1000 µM
CCOc1cc(C(=O)O)cc(OCC)c1-n1cc(-c2cnn(C3CC3)c2)c2ncc(-c3c(C)noc3C)cc21 [P-0265, 4-(3-(1-cyclopropyl-1H-pyrazol-4-yl)-6-(3,5-dimethylisoxazol-4-yl)-1H-pyrrolo[3,2-b]pyridin-1-yl)-3,5-diethoxybenzoic acid] | 1 to 8 µM
CC(=O)N1CCC(n2cc(-c3ccc(C(=O)O)cc3OC(F)(F)F)c3cc(-c4c(C)noc4C)cnc32)CC1 [P-0291, 4-(1-(1-acetylpiperidin-4-yl)-5-(3,5-dimethylisoxazol-4-yl)-1H-pyrrolo[2,3-b]pyridin-3-yl)-3-(trifluoromethoxy)benzoic acid] | 8 to 1000 µM
CCOc1cc(C(=O)O)cc(OCC)c1-n1cc(-c2cnn(CC(C)(C)O)c2)c2ncc(-c3c(C)noc3C)cc21 [P-0260, 4-(6-(3,5-dimethylisoxazol-4-yl)-3-(1-(2-hydroxy-2-methylpropyl)-1H-pyrazol-4-yl)-1H-pyrrolo[3,2-b]pyridin-1-yl)-3,5-diethoxybenzoic acid] | 1 to 8 µM
